From patent publication US20190233884A1 (University of Southern California, priority 2016, published 2019)

Test system: patients with refractory metastatic colorectal cancer (mCRC)
Assay: PFS, OS and disease control in the testing (validation) cohort of refractory mCRC patients receiving TAS-102 (n=129, Italy), by baseline characteristics, SNP genotype and toxicity
Assay type: in vivo, human
Experimental: All patients underwent the treatment in salvage-line setting. […]
(§1) Genomic DNA was extracted from peripheral whole blood in patients of all cohorts using the QIAmp Kit (Qiagen, Valencia, Calif., USA) according to the manufacturer's protocol (www.qiagen.com). The candidate SNPs were genotyped using PCR-based direct DNA sequence analysis by ABI 3100A Capillary Genetic Analyzer and Sequencing Scanner v1.0 (Applied Biosystems). Amplification of extracted DNA was carried out using both forward and reverse primers for each gene polymorphism as shown in Table 1. […] The investigators analyzing SNPs were blinded to the clinical data of the study patients.
The primary endpoint in this study was progression-free survival (PFS), and the secondary endpoints were overall survival (OS) and disease control rate (DCR). PFS was calculated from the date of starting treatment to the first observation of disease progression or death from any cause. If a patient had no disease progression or death, PFS was censored at the date of last follow up. OS was calculated from the date of starting treatment until the date of death from any cause or the date of the last follow-up, at which point OS was censored. The disease control rate (DCR) was defined as the proportion of patients who achieved a stable disease (SD) or […] according to RECISTv1.1. Chi-square test was used to examine the difference in baseline patient characteristics among the three cohorts. Allelic distribution of all SNPs by ethnicity for deviation from Hardy-Weinberg equilibrium and the allelic frequencies of SNPs were tested using the Chi-square tests with one degree of freedom. The associations between candidate SNPs and disease control, and toxicities were examined using contingency tables and Fisher's exact test. The associations of SNPs with PFS and OS were analysed using Kaplan-Meier curves and the log-rank test. Because the true mode of inheritance of candidate SNPs was not established yet, a codominant or dominant genetic model if appropriate was considered.
All patients underwent the treatment in salvage-line setting. […] In all patients, adverse events were graded according to the Common Terminology Criteria for Adverse Events, version 4.0. […]
as §1, with “tested” for “genotyped”, “Biosystems).” for “Biosystems). Amplification of extracted DNA was carried out using both forward and reverse primers for each gene polymorphism as shown in Table 1.”, “data.” for “data of the study patients.”
The primary endpoint in this study was progression-free survival (PFS), and the secondary endpoints were overall survival (OS) and disease control rate (DCR).

[1] = validation cohort, Performance status ECOG 1+ vs ECOG 0 (Ref.), univariate
[2] = validation cohort, Peritoneal No
[3] = validation cohort, Peritoneal No vs Yes (Ref.), univariate
[4] = validation cohort, Peritoneal Yes
[5] = validation cohort, Pre-chemo numbers <4
[6] = validation cohort, Pre-chemo numbers ≥4
[7] = validation cohort, Pre-chemo numbers ≥4 vs <4 (Ref.), univariate
[8] = validation cohort, Previous anti-EGFR No
[9] = validation cohort, Previous anti-EGFR No vs Yes (Ref.), univariate
[10] = validation cohort, Previous anti-EGFR Yes
[11] = validation cohort, Previous anti-VEGF No
[12] = validation cohort, Previous anti-VEGF No vs Yes (Ref.), univariate
[13] = validation cohort, Previous anti-VEGF Yes
[14] = validation cohort, Primary tumor resection No
[15] = validation cohort, Primary tumor resection No vs Yes (Ref.), univariate
[16] = validation cohort, Primary tumor resection Yes
[17] = validation cohort, Prior REGORA No
[18] = validation cohort, Prior REGORA No vs Yes (Ref.), univariate
[19] = validation cohort, Prior REGORA Yes
[20] = validation cohort, RAS status Mutant
[21] = validation cohort, RAS status Mutant vs Wild type (Ref.), univariate
[22] = validation cohort, RAS status Wild type
[23] = validation cohort, Sex Female vs Male (Ref.), univariate
[24] = validation cohort, Time to metastasis Metachronous
[25] = validation cohort, Time to metastasis Metachronous vs Synchronous (Ref.), univariate
[26] = validation cohort, Time to metastasis Synchronous
[27] = validation cohort, Tumor site Left
[28] = validation cohort, Tumor site Left vs Right (Ref.), univariate
[29] = validation cohort, Tumor site Right
[30] = validation cohort, XRCC3 rs861539 A/A
[31] = validation cohort, XRCC3 rs861539 A/A vs Any G (Ref.), multivariable
[32] = validation cohort, XRCC3 rs861539 A/A vs Any G (Ref.), univariate
[33] = validation cohort, XRCC3 rs861539 A/A vs G/G (Ref.), multivariable
[34] = validation cohort, XRCC3 rs861539 A/A vs G/G (Ref.), univariate
[35] = validation cohort, XRCC3 rs861539 Any A
[36] = validation cohort, XRCC3 rs861539 Any A vs G/G (Ref.), multivariable
[37] = validation cohort, XRCC3 rs861539 Any A vs G/G (Ref.), univariate
[38] = validation cohort, XRCC3 rs861539 Any G
[39] = validation cohort, XRCC3 rs861539 G/A
[40] = validation cohort, XRCC3 rs861539 G/A vs G/G (Ref.), multivariable
[41] = validation cohort, XRCC3 rs861539 G/A vs G/G (Ref.), univariate
[42] = validation cohort, XRCC3 rs861539 G/G
[43] = validation cohort, ATM rs609429 any G allele
[44] = validation cohort, ATM rs609429 any G vs C/C, univariate
[45] = whole testing (validation) cohort

Trifluridine/tipiracil [TAS-102]
HR OS [1]: 2.15
HR PFS [1]: 1.43
Median OS [2]: 9.0 months
Median PFS [2]: 2.0 months
HR OS [3]: 0.80
HR PFS [3]: 0.74
Median OS [4]: 5.3 months
Median PFS [4]: 1.9 months
Median OS [5]: 5.1 months
Median PFS [5]: 1.9 months
Median OS [6]: 8.7+ months
Median PFS [6]: 2.1 months
HR OS [7]: 0.57
HR PFS [7]: 0.66
Median OS [8]: 4.4 months
Median PFS [8]: 1.9 months
HR OS [9]: 2.63
HR PFS [9]: 1.53
Median OS [10]: 8.8+ months
Median PFS [10]: 2.1 months
Median OS [11]: 6.6+ months
Median PFS [11]: 2.8 months
HR OS [12]: 0.60
HR PFS [12]: 0.67
Median OS [13]: 5.5 months
Median PFS [13]: 2.0 months
Median OS [14]: 3.9 months
Median PFS [14]: 1.8 months
HR OS [15]: 1.87
HR PFS [15]: 2.13
Median OS [16]: 9.0 months
Median PFS [16]: 2.0 months
Median OS [17]: 5.4 months
Median PFS [17]: 2.0 months
HR OS [18]: 1.36
HR PFS [18]: 1.20
Median OS [19]: 8.7+ months
Median PFS [19]: 2.0 months
Median OS [20]: 5.1 months
Median PFS [20]: 1.9 months
HR OS [21]: 1.48
HR PFS [21]: 1.21
Median OS [22]: 8.8+ months
Median PFS [22]: 2.0 months
Median OS (validation cohort, Sex Female): 5.3 months
Median PFS (validation cohort, Sex Female): 2.1 months
HR OS [23]: 1.22
HR PFS [23]: 0.98
Median OS (validation cohort, Sex Male): 9.0 months
Median PFS (validation cohort, Sex Male): 1.9 months
Median OS [24]: 8.5+ months
Median PFS [24]: 2.0 months
HR OS [25]: 0.59
HR PFS [25]: 0.75
Median OS [26]: 5.2 months
Median PFS [26]: 1.9 months
Median OS [27]: 9.0 months
Median PFS [27]: 2.0 months
HR OS [28]: 0.78
HR PFS [28]: 1.07
Median OS [29]: 5.1 months
Median PFS [29]: 1.9 months
Disease Control CR/PR/SD, patients n (%) [30]: 3 (12%)
Median OS (95% CI) [30]: 4.2 (3.6, 8.8+) months
Median PFS (95% CI) [30]: 1.9 (1.8, 2.0) months
PD, patients n (%) [30]: 22 (88%)
HR OS (95% CI) [31]: 1.05 (0.56, 1.97)
HR PFS (95% CI) [31]: 1.30 (0.81, 2.09)
HR OS (95% CI) [32]: 1.29 (0.70, 2.39)
HR PFS (95% CI) [32]: 1.37 (0.86, 2.18)
HR OS (95% CI) [33]: 0.93 (0.46, 1.88)
HR PFS (95% CI) [33]: 1.26 (0.74, 2.14)
HR OS (95% CI) [34]: 1.13 (0.57, 2.22)
HR PFS (95% CI) [34]: 1.34 (0.80, 2.25)
Disease Control CR/PR/SD, patients n (%) [35]: 19 (26%)
Median OS (95% CI) [35]: 5.8 (4.1, 9.0+) months
Median PFS (95% CI) [35]: 2.0 (1.9, 2.1) months
PD, patients n (%) [35]: 55 (74%)
HR OS (95% CI) [36]: 0.84 (0.47, 1.49)
HR PFS (95% CI) [36]: 1.05 (0.69, 1.60)
HR OS (95% CI) [37]: 0.88 (0.51, 1.54)
HR PFS (95% CI) [37]: 1.07 (0.72, 1.61)
Disease Control CR/PR/SD, patients n (%) [38]: 32 (32%)
Median OS (95% CI) [38]: 5.8 (4.7, 9.0+) months
Median PFS (95% CI) [38]: 2.0 (1.9, 2.3) months
PD, patients n (%) [38]: 67 (68%)
Disease Control CR/PR/SD, patients n (%) [39]: 16 (33%)
Median OS (95% CI) [39]: 9.0 (4.6, 9.0+) months
Median PFS (95% CI) [39]: 2.0 (1.9, 2.3) months
OS [39]: 9.0 months
PD, patients n (%) [39]: 33 (67%)
HR OS (95% CI) [40]: 0.79 (0.41, 1.51)
HR PFS (95% CI) [40]: 0.95 (0.59, 1.51)
HR OS (95% CI) [41]: 0.75 (0.40, 1.43)
HR PFS (95% CI) [41]: 0.96 (0.62, 1.50)
Disease Control CR/PR/SD, patients n (%) [42]: 16 (32%)
Median OS (95% CI) [42]: 5.5 (3.6, 8.7+) months
Median PFS (95% CI) [42]: 2.1 (1.7, 2.5) months
PD, patients n (%) [42]: 34 (68%)
OS [43]: not reached
PFS [43]: 2.0 months
HR for OS [44]: 0.73
HR for PFS [44]: 0.78
OS (validation cohort, XRCC3 rs861539 C/C variant (so in the source)): 5.5 months
HR for OS (validation cohort, XRCC3 rs861539 G/A vs C/C (so in the source)): 0.75
Median OS [45]: 5.7 months
Median PFS [45]: 2.0 months
